Ki and Kd data for 19 compounds are collected here from ChEMBL document CHEMBL1770056, “2-Arylimidazo[2,1-b]benzothiazoles: a new family of amyloid binding agents with potential for PET and SPECT imaging of Alzheimer's brain” (Bioorg Med Chem Lett, 2011).

The Ki is the dissociation constant of the complex between target and ligand, obtained from inhibition or displacement. As usually defined, the Kd is the constant that tells how readily two partners part at equilibrium.

Experiment [1] is described as follows: Displacement of [3H]BTA-1 from amyloid beta 1 to 40 by competitive binding assay. In general terms: In a radioligand displacement assay an active substance lowers the binding of a labelled ligand.
A short description of experiment [2]: Binding affinity to amyloid beta 1 to 40.

`Fc1ccc2c(c1)sc1nc(-c3ccc(I)cc3)cn12` showed an inhibition constant (Ki) in experiment [1] of 41.9 nM. `Brc1ccc2c(c1)sc1nc(-c3ccc(I)cc3)cn12` gave an inhibitory constant (Ki) in experiment [1] of 21.1 nM. This Ki lies about 2-fold lower than the previous one. Still for that read-out and setting: the figure for `COc1ccc2c(c1)sc1nc(-c3ccc(N)cc3)cn12` is 29.8 nM. For `COc1ccc2c(c1)sc1nc(-c3ccc(Br)cc3)cn12`, in experiment [1], the affinity, expressed as Ki, was 9.4 nM. Compared with the last compound, the Ki is about 3.2-fold lower. `CNc1ccc(-c2cn3c(n2)sc2cc(Br)ccc23)cc1` displayed an inhibitory constant (Ki) in experiment [1] of 34.5 nM. As to `CN(C)c1ccc(-c2cn3cc([123I])ccc3n2)cc1`, the affinity in experiment [2], expressed as Kd, was 10 nM. Further, the inhibitory constant (Ki) in experiment [1] came out at […].

As for `CN(C)c1ccc(-c2cn3c(n2)sc2cc(F)ccc23)cc1`, in experiment [1], affinity was put at a Ki of 42.9 nM. For `Cc1ccc2c(c1)sc1nc(-c3ccc(Br)cc3)cn12`, in experiment [1], affinity was put at a Ki of 26 nM. `CNc1ccc(-c2cn3c(n2)sc2cc(F)ccc23)cc1` had an inhibitory constant (Ki) in experiment [1] of 38.1 nM. Still for that read-out and setting: for `COc1ccc2c(c1)sc1nc(-c3ccc(N[11CH3])cc3)cn12` the value was 6.09 nM.

Consider `Cc1ccc2c(c1)sc1nc(-c3ccc(I)cc3)cn12`, for which the Ki in experiment [1] was 17.7 nM.

Consider `Nc1ccc(-c2cn3c(n2)sc2cc(Br)ccc23)cc1`, for which, in experiment [1], the inhibition constant (Ki) worked out at 28.8 nM. In experiment [1], `CNc1ccc(-c2nc3ccc(O)cc3s2)cc1` [PITTSBURGH COMPOUND B UNLABELLED] displayed a Ki of 4.5 nM. This Ki lies about 6.4-fold lower than the previous one. The same measure, in the same setting: for `COc1ccc2c(c1)sc1nc(-c3ccc(N(C)C)cc3)cn12` the value was 58.6 nM; for `Nc1ccc(-c2cn3c(n2)sc2cc(F)ccc23)cc1`, 133 nM; for `CN(C)c1ccc(-c2cn3c(n2)sc2cc(Br)ccc23)cc1`, 43.4 nM. On to `COc1ccc2c(c1)sc1nc(-c3ccc([123I])cc3)cn12`, for which the Ki in experiment [1] came out at 10.9 nM.

The compound `CN(C)c1ccc(-c2cn3cc(I)ccc3n2)cc1` showed a Ki in experiment [1] of […]. Consider `[11CH3]Nc1ccc(-c2nc3ccc(O)cc3s2)cc1` [PITTSBURGH COMPOUND B], for which the affinity in experiment [2], expressed as Kd, was 10 nM. Further, the affinity in experiment [1], expressed as Ki, was 11 nM.
